Experimental data from patent US5744340A, “Expression of human inducible nitric oxide synthase” (Schering Corporation, priority 1995, dated 1998).
Where “and” joins values, the source holds several entries; their conditions need not be identical. Equal values may be shown once. Read-outs that look alike come from different tables or passages of the source.

Columns and labels:
human iNOS [1] = biological target: T1, human iNOS (Homo sapiens, UniProt P35228); assay: iNOS activity: conversion of radioactive arginine to citrulline; format: biochemical; conditions: for dependence of activity on iNOS cofactors: crude cell extract; for NOS activity without calmodulin coexpression: expression in E. coli
T1 construct: A full length iNOS cDNA was assembled from the products of the four PCR reactions; made in house; host or cells: E. coli JS5
Protocol: iNOS activity was measured by the conversion of radioactive arginine to citrulline similar to that described by Bredt and Snyder (Proc. Natl. Acad. Sci. USA, 1989, 86:9030-9033). Reactions contained 20 mM HEPES pH 7.5, 1 mM DTT, 10 μM FAD, 10 μM FMN, 20 μM THB, 2 μM hemin, 1 mM NADPH, 2 mg/ml BSA, 50 μM cold arginine and 1 μM ^3 H-arginine (60 Ci/mmole; Amersham). […] The reaction mix was then passed through 100 μl of Dowex resin (AG50-X8) in a filtration plate to separate citrulline (unbound) from arginine (bound). The filtrate was counted with one volume of scintillation fluid in 1450 Microbeta Plus liquid scintillation counter (Wallac). Enough enzyme is used per assay point to convert 10-20% of the tritiated arginine to product. Activities of various cell extracts examined are reported in units/ml, units defined as pmoles of citrulline formed per minute. Samples of E coli cell lysate expressing iNOS activity were desalted on a G-25 column prior to assay to remove any cold arginine.
NOS assays were performed as described above, except 1 μM undiluted labeled arginine was used. When calmodulin was used it was added at 10 μg/ml.
The iNOS activity in the crude cell extract was further characterized by a number of criteria.
Cells were broken and processed for activity, as described, except that THB was not added. The assay was then run with varying amounts of THB.

rat bNOS [2] = conditions: Klatt et al., 1994, cited from earlier work
human iNOS [3] = biological target: T1, human iNOS; assay: retention of iNOS activity on overnight storage; format: physicochemical
Protocol: Breakage of cells and the ammonium sulfate fractionations were done in the presence of 10 μM FAD, 10 μM FMN, 2 μM THB, and 2 μM hemin. Leaving these cofactors out of the breaking buffer had no effect on the level of iNOS activity. […] Flavins were omitted after the 40% ammonium sulfate fractionation since they bind tightly to Q Sepharose. CHAPS detergent was included for the Q Sepharose column because iNOS fractionated poorly from the bulk of the protein in its absence. The yield of iNOS from about 20 liters of cells (32 g starting protein in the crude extract) was about 30-40 mg.

murine iNOS = conditions: 1991, cited from earlier work
rat bNOS [4] = conditions: cited from earlier work

T1 sequence (P35228 whole entry): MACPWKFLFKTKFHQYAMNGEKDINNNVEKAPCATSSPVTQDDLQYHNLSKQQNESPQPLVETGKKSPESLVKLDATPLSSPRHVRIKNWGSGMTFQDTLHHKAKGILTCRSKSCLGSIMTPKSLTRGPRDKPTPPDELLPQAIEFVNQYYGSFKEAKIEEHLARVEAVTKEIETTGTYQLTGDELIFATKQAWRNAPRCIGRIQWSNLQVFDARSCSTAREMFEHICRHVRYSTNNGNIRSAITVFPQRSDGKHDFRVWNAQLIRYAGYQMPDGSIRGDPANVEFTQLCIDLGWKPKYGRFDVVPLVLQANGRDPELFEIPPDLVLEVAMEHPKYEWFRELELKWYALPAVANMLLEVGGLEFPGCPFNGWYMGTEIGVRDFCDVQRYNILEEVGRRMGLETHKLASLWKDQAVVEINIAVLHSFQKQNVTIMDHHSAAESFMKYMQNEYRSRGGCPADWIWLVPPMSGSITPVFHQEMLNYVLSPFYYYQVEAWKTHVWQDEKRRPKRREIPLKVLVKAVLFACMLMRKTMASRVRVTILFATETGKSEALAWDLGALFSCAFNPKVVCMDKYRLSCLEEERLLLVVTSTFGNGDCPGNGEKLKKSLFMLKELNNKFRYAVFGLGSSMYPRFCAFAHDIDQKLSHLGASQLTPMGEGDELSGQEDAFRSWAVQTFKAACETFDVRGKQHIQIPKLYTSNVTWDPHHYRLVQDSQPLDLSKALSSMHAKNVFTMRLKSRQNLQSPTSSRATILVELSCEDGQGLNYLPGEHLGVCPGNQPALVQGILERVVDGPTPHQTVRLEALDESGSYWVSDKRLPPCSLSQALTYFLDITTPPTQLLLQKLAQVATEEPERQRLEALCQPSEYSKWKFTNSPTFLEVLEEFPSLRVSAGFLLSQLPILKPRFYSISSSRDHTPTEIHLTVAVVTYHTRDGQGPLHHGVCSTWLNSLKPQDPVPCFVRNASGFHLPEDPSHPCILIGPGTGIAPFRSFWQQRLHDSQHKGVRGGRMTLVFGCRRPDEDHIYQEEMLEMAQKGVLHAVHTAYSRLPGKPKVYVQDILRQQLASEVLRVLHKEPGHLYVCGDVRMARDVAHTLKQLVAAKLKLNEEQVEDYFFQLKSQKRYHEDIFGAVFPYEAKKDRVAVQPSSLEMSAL

[Ca+2].[Cl-].[Cl-] [CaCl2, reference compound]
effect of addition on iNOS activity (human iNOS [1]; 1 mM CaCl2): unaffected

O=C(O)CN(CCOCCOCCN(CC(=O)O)CC(=O)O)CC(=O)O [EGTA, reference compound]
effect of addition on iNOS activity (human iNOS [1]; 1 mM EGTA): unaffected

Cc1cc2nc3c(=O)[nH]c(=O)nc-3n(C[C@H](O)[C@H](O)[C@H](O)COP(=O)(O)OP(=O)(O)OC[C@H]3O[C@@H](n4cnc5c(N)ncnc54)[C@H](O)[C@@H]3O)c2cc1C [FAD, reference compound]
dependence of activity on iNOS cofactors (human iNOS [1]): no dependence

Cc1cc2nc3c(=O)[nH]c(=O)nc-3n(C[C@H](O)[C@H](O)[C@H](O)COP(=O)(O)O)c2cc1C [FMN, reference compound]
dependence of activity on iNOS cofactors (human iNOS [1]): no dependence

C[C@H](O)[C@H](O)[C@H]1CNc2nc(N)[nH]c(=O)c2N1 [THB, tetrahydrobiopterin, reference compound]
dependence of enzyme activity on added THB (human iNOS [1]; E. coli expressed iNOS): completely dependent
EC50 (human iNOS [1]; FIG. 4, cells broken without THB, varying THB in assay, read-out: half-maximal activity (THB titration)): ~0.12 µM and 0.12 µM
effect of THB on NOS activity (human iNOS [1]; cells broken in the absence of THB, THB added): restores NOS activity
Kd (rat bNOS [2]; read-out: Kd for THB binding to rat bNOS): ~0.04 µM
Kd (rat bNOS [2]; in the absence of 100 μM arginine, read-out: binding constant of THB for bNOS): 0.25 µM
Kd (rat bNOS [2]; in the presence of 100 μM arginine, read-out: binding constant of THB for bNOS): 0.037 µM

N=C(N)NN [aminoguanidine, reference compound]
IC50's on E. coli-derived compared with 293 cell-derived iNOS (human iNOS [1]; FIG. 5, 1 μM labeled arginine, inhibitor 0.01 to 10,000 μM): within two-fold of each other on both sources of iNOS

N=C(N)NCCC[C@H](N)C(=O)O [arginine, L-arginine, reference compound]
Km for arginine compared with mammalian derived iNOS (human iNOS [1]; E. coli expressed iNOS): same Km

c1c[nH]cn1 [imidazole, reference compound]
IC50 (human iNOS [1]): 120 µM

calmodulin
effect of addition of calmodulin on NOS activity (human iNOS [1]; FIG. 2, coexpression extracts, calmodulin 10 μg/ml, 1 μM undiluted labeled arginine): no effect
effect of addition on iNOS activity (human iNOS [1]; calcium +10 mg/ml calmodulin): unaffected
effect of calmodulin in the NOS assay (human iNOS [1]; iNOS expressed in E. coli without coexpression of calmodulin): no effect

hemin [reference compound]
dependence of activity on iNOS cofactors (human iNOS [1]): no dependence

human iNOS: human inducible nitric oxide synthase expressed in E. coli, coexpressed with human calmodulin
Specific Activity (human iNOS [1]; 40% ammonium sulfate ppt): 19,600 units/mg
specific activity compared with murine iNOS (human iNOS [1]; E. coli expressed iNOS): approximately the same specific activity
level of activity with coexpression relative to without coexpression (human iNOS [1]; FIG. 2, average of three assays): > 100 fold
Specific Activity (human iNOS [1]; Q Sepharose pool): 149,000 units/mg
Specific Activity (human iNOS [1]; S300 pool): 317,000 units/mg
Specific Activity (human iNOS [1]; cell lysate): 2,420 units/mg
activity with coexpression of calmodulin (human iNOS [1]; crude extract): 3000-5000 units/mg
NOS activity without calmodulin coexpression (human iNOS [1]): barely detectable above background
NOS activity without calmodulin coexpression (human iNOS [1]; listed as iNOS): barely detectable above the E. coli negative control
specific activity of iNOS in the crude cell supernatant (human iNOS [1]; iNOS amount estimated from SDS gel against BSA control): 500-1000 nmoles citrulline/min/mg of iNOS
specific activity of the most pure material (human iNOS [1]; leading edge of the S300 column, >95% pure): 450,000 units/mg
activity after overnight storage (human iNOS [3]; absence of cofactors (FAD, FMN, THB, hemin)): half of the activity was lost
activity after overnight storage (human iNOS [3]; presence of cofactors (10 μM FAD, 10 μM FMN, 2 μM THB, 2 μM hemin)): complete activity was retained

murine iNOS: purified murine inducible nitric oxide synthase (Stuehr et al., 1991)
specific activity of purified murine iNOS (murine iNOS; Stuehr et al.): 1000 nmol/min/mg
specific activity of murine iNOS (murine iNOS; pure murine iNOS, b61: Stuehr et al.): 1×10^6 units/mg and 1,000,000 units/mg

rat bNOS: rat brain or neuronal nitric oxide synthase
specific activity of rat bNOS (rat bNOS [4]): 270,000 units/mg
